Test results as given in PMC6207618, “The GbsR Family of Transcriptional Regulators: Functional Characterization of the OpuAR Repressor” (Frontiers in Microbiology, 2018).
“Also recorded” adds a separate entry of the source.

Key:
[1] = test system: B. infantis OpuA transporter; assay: Osmostress protection growth assay, B. infantis opuA operon expressed in B. subtilis strain CAB2; format: cell-based, Bacillus infantis; details: for Osmostress protection (growth yield OD578): B. subtilis CAB2, SMM with 1.2 M NaCl, 1 mM osmostress protectant, 18 h, 37°C; for Substrate of / import via the B. infantis OpuA transporter: inferred from osmostress protection of B. subtilis CAB2, 1.2 M NaCl, 1 mM
Description: (§1) Bacterial strains were propagated in Luria–Bertani (LB) liquid media at 37°C or plated on LB agar plates. The B. infantis strain NRRL B-14911 was grown in MOPS-buffered basal medium [50 mM MOPS (pH 7.5), 50 mM MgSO4, 10 mM KCl, 10 mM CaCl2, 190 mM NH4Cl, 0.33 mM K2HPO4, 0.1 mM FeSO4] supplemented with 0.5% glucose (wt/vol) as a carbon source, 0.4% casamino acids (wt/vol), 5 ml l^-1 vitamin solution A (7.8 mg l^-1 biotin, 15.6 mg l^-1 nicotinic acid, and 15.6 mg l^-1 lipoic acid; pH adjusted to 7.5), and 5 ml l^-1 vitamin solution B (15.6 mg l^-1 pantothenic acid, 15.6 mg l^-1 pyridoxine-HCl, 15.6 mg l^-1 thiamine, 15.6 mg l^-1 p-aminobenzoic acid, and 0.32 mg l^-1 cobalamin) ([Gonzalez et al., 1997]). In main cultures used for osmostress protection assays, casamino acids were left out from the growth medium. The osmolarity of growth media was adjusted by the addition of NaCl from a 5 M NaCl stock solution. If desired, osmostress protectants were added to the medium of B. infantis NRRL B-14911 cultures at a final concentration of 1 mM. For growth experiments, liquid cultures of B. infantis NRRL B-14911 were grown in 100-ml Erlenmeyer flasks containing 20-ml of medium in a water bath set to 37°C with vigorous shaking (set to 220 rpm). Pre-cultures of strains were propagated to mid-exponential growth phase in basal medium (with 0.4% casamino acids) and were then used to inoculate fresh basal medium (without casamino acids) to an optical density at 578 nm (OD578) of 0.1. Liquid cultures of B. subtilis strains were grown at 37°C in Spizizen’s minimal medium (SMM) ([Harwood and Archibald, 1990]) with 0.5% glucose as carbon source and a solution of trace elements ([Harwood and Cutting, 1990]). L-Tryptophan (20 mg l^-1) and L-phenylalanine (18 mg l^-1) were added to SMM-derived growth media to satisfy the auxotrophic needs of the B. subtilis strain JH642 (trpC2 pheA1) ([Smith et al., 2014]) and its derivatives (Supplementary Table S1). Cultures (20-ml in 100-ml Erlenmeyer flasks) of B. subtilis strains were inoculated from exponentially growing pre-cultures in SMM to an OD578 of 0.1 and were incubated in a shaking water bath (set to 220 rpm) at 37°C. If needed, the osmolarity of the growth medium was increased by the addition of NaCl (from 5 M stock solutions prepared in H2O). Compatible solutes were filter sterilized and added to the growth medium of B. subtilis strains from 100 mM stock solutions to a final concentration of 1 mM unless otherwise explicitly stated in the text.
For the heterologous expression of the B. infantis NRRL B-14911 opuA operon (opuAA-opuAB-opuAC) in B. subtilis, a 3826-bp DNA fragment including the coding region of the opuA operon and the adjacent opuAR regulatory gene was generated by PCR using primers CA3-opuARA fwd and CA3-opuARA rev (Supplementary Table S2). […] Plasmid pX and its recombinant derivatives allow the stable insertion of genes into the B. subtilis chromosome as a single copy into the non-essential amyE locus via a double homologous recombination event via amyE sequences present on both the plasmid and the chromosome ([Kim et al., 1996]). Insertion of plasmid pX, or its recombinant derivatives, into the B. subtilis chromosome at the amyE gene can be selected for on agar plates containing the antibiotic chloramphenicol (final concentration: 5 μg ml^-1) and the subsequently scoring of the AmyE negative phenotype of the strains on LB plates containing 1% starch ([Harwood and Cutting, 1990]). Linearized plasmid DNA of pCA-opuARA was used to transform the B. subtilis chassis strain TMB118 [Δ(opuA::tet)3 Δ(opuC::spc)3 Δ(opuD::neo)2 Δ(opuB::erm)3] ([Teichmann et al., 2017]) in which only the proline-specific osmostress OpuE transporter ([von Blohn et al., 1997]) is present. The resulting strain was CAB2 (Supplementary Table S1). B. subtilis mutants carrying chromosomal deletions of the yvaV and opcR genes were constructed using long-flanking region PCR ([Kuwayama et al., 2002]).

[2] = test system: B. infantis NRRL B-14911; assay: Osmostress protection assay of B. infantis; format: cell-based, Bacillus infantis; details: basal medium with 0.9 M NaCl, 1 mM osmostress protectant, 29 h, 37°C
Description: as §1
(A) Influence of increasing salinity on the growth of B. infantis NRRL B-14911. Cultures were grown in basal medium adjusted to the indicated salinity. Growth yields were measured after 30 h of incubation at 37°C. (B) Osmostress protection assays were carried out in basal medium supplemented with 0.9 M NaCl and in the presence of 1 mM of the indicated osmostress protectants. After 29 h of incubation at 37°C, growth yields were determined by measuring the OD578 of the cultures. (C) Substrate specificity of the B. infantis OpuA transporter. The opuA operon (and its flanking opuAR gene) of B. infantis NRRL B-14911 was heterologously expressed in a derivative of B. subtilis JH642, lacking all uptake system for compatible solutes except for the L-proline-specific OpuE transporter ([Hoffmann and Bremer, 2017]; [Teichmann et al., 2017]). Growth assays were conducted in minimal medium (SMM), either in the absence or presence of 1.2 M NaCl and 1 mM of the indicated osmostress protectants. After 18 h of incubation at 37°C, the optical densities (OD578) of the cultures were measured. The given values are the means and standard deviations of four independent biological replicates.
Next, we studied the possible osmostress protection of B. infantis NRRL B-14911 by various exogenously provided compatible solutes.

SMILES: CN(C)CC(=O)O [DMG, dimethlyglycine]
- Osmostress protection (growth yield OD578) [1]: at a reduced level
- Osmostress protection (growth yield OD578) [2]: moderate level of osmostress protection

SMILES: C[S+](C)CCC(=O)[O-] [DMSP, dimethylsulfoniopropionate]
- Osmostress protection (growth yield OD578) [1]: protected
- Substrate of / import via the B. infantis OpuA transporter [1]: good substrate
- Osmostress protection (growth yield OD578) [2]: moderate level of osmostress protection

SMILES: C[N+](C)(C)CCO [choline]
- Substrate of / import via the B. infantis OpuA transporter [1]: not imported; also recorded: not a substrate
- Osmostress protection (growth yield OD578) [2]: not osmostress protective; also recorded: does not serve as an osmostress protectant

SMILES: C[N+](C)(C)CC(=O)[O-] [glycine betaine]
- Osmostress protection (growth yield OD578) [1]: protected
- Substrate of / import via the B. infantis OpuA transporter [1]: major substrates
- Osmostress protection (growth yield OD578) [2]: substantial level of osmostress protection

SMILES: C[N+](C)(C)CCC(=O)[O-] [homobetaine]
- Osmostress protection (growth yield OD578) [1]: protected
- Osmostress protection (growth yield OD578) [2]: moderate level of osmostress protection

SMILES: C[N+]1(C)CCC[C@H]1C(=O)[O-] [proline betaine]
- Osmostress protection (growth yield OD578) [1]: protected
- Substrate of / import via the B. infantis OpuA transporter [1]: major substrates
- Osmostress protection (growth yield OD578) [2]: substantial level of osmostress protection
